We go through 18 compounds from PubChem BioAssay (NCI).

Test systems include DMS 114 small cell lung; KM20L2 colon; LXFL 529 NSCLC; RXF-631 renal; XF 498 CNS; 786-0 renal; DU-145 prostate; MCF7 breast; MDA-MB-231 breast; PC-3 prostate; HOP-18 NSCLC.
Holding throughout (test): inhibition of tumour cell growth, NCI panel, 48 h

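Growth conditions: 96-well plates. Treatment: test compound, 48 hours, 5 concentrations. Analysis: linear interpolation between bracketing concentrations; unreached endpoints set to highest concentration. At the GI50, growth is halved. At the TGI there is no net growth.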 A value given as a limit tells only on which side of the number the result lay.

Consider `O=c1oc2ccccc2n1P(=O)(n1c(=O)oc2ccccc21)n1c(=O)oc2ccccc21`, for which the TGI in the assay on DMS 114 small cell lung, in the assay with KM20L2 colon, in the assay on LXFL 529 NSCLC, in the assay with RXF-631 renal and in the assay on XF 498 CNS was over 100 µM each time.

Regarding `CS/C(C#N)=C(\C#N)SC`, the TGI was over 100 µM in the assay on 786-0 renal; 40.7 µM in the assay with DU-145 prostate; 12.3 µM with MCF7 breast; 89.6 µM with MDA-MB-231 breast; 62.2 µM in the assay on PC-3 prostate.

On to `CC(C)OC(=O)Nc1cccc(Cl)c1`, for which the TGI in the assay on 786-0 renal, in the assay on DU-145 prostate, in the assay with MCF7 breast, in the assay on MDA-MB-231 breast and with PC-3 prostate was over 100 µM each time.

With `CN(C)CC1CCCC(CN2CCCCC2)C1=O` (stereo not drawn), the TGI is 6.07 µM in the assay on 786-0 renal; over 23.4 µM with DMS 114 small cell lung; 32.5 µM with DU-145 prostate; 4.71 µM in the assay on HOP-18 NSCLC; 41.6 µM with KM20L2 colon; 2.62 µM in the assay with MCF7 breast. Besides, the results for the TGI in the assay on MDA-MB-231 breast and in the assay with PC-3 prostate were 28.3 µM and 29 µM, respectively.

For the compound `[O-]c1c[n+](CCCC[n+]2cc([O-])on2)no1`, the TGI in the assay with 786-0 renal, in the assay with DU-145 prostate, in the assay with MCF7 breast, in the assay with MDA-MB-231 breast and in the assay with PC-3 prostate was over 100 µM each time.

Consider `Cc1cccc(O)c1-c1nnc(CCCCCCCCc2nnc(-c3c(C)cccc3O)n2N)n1N`, for which the TGI in the assay on DU-145 prostate, in the assay on MCF7 breast, in the assay on MDA-MB-231 breast and in the assay with PC-3 prostate was over 100 µM throughout.

For `Cc1ccc(S(=O)(=O)N2c3ccccc3[C@H]3CCc4c([nH]c5ccccc45)[C@H]32)cc1`, the TGI in the assay on DU-145 prostate, with MCF7 breast, in the assay on MDA-MB-231 breast and in the assay with PC-3 prostate was over 100 µM throughout.

For `C[C@H]1C(=O)O[C@@H]1[C@H]1COC(C)(C)O1`, the TGI in the assay with MCF7 breast, in the assay on MDA-MB-231 breast and with PC-3 prostate was over 100 µM throughout.

`CC(N)C(=O)OCN1C(=O)C2C3C=CC(C2C1=O)C1C2C(=O)N(COC(=O)C(C)N)C(=O)C2C31` (stereo not drawn): the TGI with 786-0 renal was 37.6 µM; with DMS 114 small cell lung, 36.5 µM; in the assay with HOP-18 NSCLC, over 100 µM; in the assay on KM20L2 colon, 72.2 µM; with LXFL 529 NSCLC it was 60.8 µM; in the assay on XF 498 CNS it was 47.5 µM.

For `CO[C@H]1ON=C(c2c(C)cc(C)cc2C)[C@@H]1C1(c2ccccc2)ON=C(c2c(C)cc(C)cc2C)O1` (stereo partly drawn), the TGI in the assay with HOP-18 NSCLC, in the assay on KM20L2 colon and in the assay on LXFL 529 NSCLC was over 100 µM each time.

Take `Cc1ccccc1[P+](C)(c1ccccc1C)c1ccccc1C`: the TGI in the assay on 786-0 renal is 93.7 µM; in the assay on DU-145 prostate it was over 100 µM; in the assay on MCF7 breast, over 100 µM; in the assay on MDA-MB-231 breast it was 35.2 µM; in the assay on PC-3 prostate it was 55.2 µM.

On to `Nc1nc(Cl)cc(NCCCNc2cc(Cl)nc(N)n2)n1`, for which the TGI in the assay on DMS 114 small cell lung, with HOP-18 NSCLC, in the assay on KM20L2 colon, in the assay on LXFL 529 NSCLC, in the assay with RXF-631 renal and in the assay with XF 498 CNS was over 100 µM in each case.

Take `COC(=O)C(=O)C(C(=O)C1=NS(=O)(=O)c2cc(S(N)(=O)=O)c(Cl)cc2N1)c1nc2ccc(C(=O)c3ccccc3)cc2[nH]c1=O` (stereo not drawn): the TGI with 786-0 renal, with HOP-18 NSCLC, in the assay on KM20L2 colon, with LXFL 529 NSCLC, in the assay on RXF-631 renal and with XF 498 CNS was over 100 µM in each case.

Regarding `Cn1cc(-c2csc(-c3cn(C)c4ccc(Br)cc34)n2)c2cnccc21`, the GI50 is 1.74 µM in the assay on DU-145 prostate, 1.78 µM with MCF7 breast, 1.66 µM in the assay with MDA-MB-231 breast and 1.55 µM in the assay on PC-3 prostate. The TGI with DU-145 prostate stood at 3.17 µM; with MCF7 breast, 3.43 µM; with MDA-MB-231 breast, 3.09 µM; in the assay on PC-3 prostate, 3.02 µM.

Regarding `NC(=O)c1ccc(NS(=O)(=O)c2ccc(N)cc2)nc1`, the TGI in the assay with 786-0 renal, in the assay with DU-145 prostate, in the assay on MCF7 breast, with MDA-MB-231 breast and in the assay on PC-3 prostate was over 100 µM each time.

Take `CN1C(=O)CN2C(Cl)(Cl)C2(c2ccccc2F)c2cc([N+](=O)[O-])ccc21` (stereo not drawn): the TGI in the assay with DMS 114 small cell lung, in the assay with KM20L2 colon and in the assay with LXFL 529 NSCLC was over 100 µM each time.

As for `C1CCC(OCc2nnn3c2CCC3)OC1` (stereo not drawn), the TGI with KM20L2 colon, in the assay with LXFL 529 NSCLC and with XF 498 CNS was over 100 µM each time.

Turning to `c1ccc(CSC2(SCc3ccccc3)CCCC2)cc1`, the TGI in the assay with DU-145 prostate, in the assay on MCF7 breast, in the assay with MDA-MB-231 breast and in the assay on PC-3 prostate was over 10 µM throughout.
